Data set [1] deals with HDACs (HeLa cell nuclear extracts). Nature of the data set: HDAC enzymatic activity, Biomol Color de Lys system. Type of data set: biochemical. The note with it: 1 hour, 25° C. In a few lines:
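IC50 from sigmoidal fit of developer-terminated fluorescence (ex 350-380/em 440-460 nm). Reaction: 1 h at room temperature (25 °C), HeLa nuclear extract as HDAC source, artificial substrate, buffer of 50 mM Tris/Cl pH 8.0 with 137 mM NaCl, 2.7 mM KCl and 1 mM MgCl2.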

The target in data set [2] is T1, PI3Kα (p110α/p85α) (Homo sapiens, UniProt P42336).
T1 construct: GST (N); made in house; host or cells: Baculovirus-infected Sf9 cells
T1 sequence (P42336 whole entry): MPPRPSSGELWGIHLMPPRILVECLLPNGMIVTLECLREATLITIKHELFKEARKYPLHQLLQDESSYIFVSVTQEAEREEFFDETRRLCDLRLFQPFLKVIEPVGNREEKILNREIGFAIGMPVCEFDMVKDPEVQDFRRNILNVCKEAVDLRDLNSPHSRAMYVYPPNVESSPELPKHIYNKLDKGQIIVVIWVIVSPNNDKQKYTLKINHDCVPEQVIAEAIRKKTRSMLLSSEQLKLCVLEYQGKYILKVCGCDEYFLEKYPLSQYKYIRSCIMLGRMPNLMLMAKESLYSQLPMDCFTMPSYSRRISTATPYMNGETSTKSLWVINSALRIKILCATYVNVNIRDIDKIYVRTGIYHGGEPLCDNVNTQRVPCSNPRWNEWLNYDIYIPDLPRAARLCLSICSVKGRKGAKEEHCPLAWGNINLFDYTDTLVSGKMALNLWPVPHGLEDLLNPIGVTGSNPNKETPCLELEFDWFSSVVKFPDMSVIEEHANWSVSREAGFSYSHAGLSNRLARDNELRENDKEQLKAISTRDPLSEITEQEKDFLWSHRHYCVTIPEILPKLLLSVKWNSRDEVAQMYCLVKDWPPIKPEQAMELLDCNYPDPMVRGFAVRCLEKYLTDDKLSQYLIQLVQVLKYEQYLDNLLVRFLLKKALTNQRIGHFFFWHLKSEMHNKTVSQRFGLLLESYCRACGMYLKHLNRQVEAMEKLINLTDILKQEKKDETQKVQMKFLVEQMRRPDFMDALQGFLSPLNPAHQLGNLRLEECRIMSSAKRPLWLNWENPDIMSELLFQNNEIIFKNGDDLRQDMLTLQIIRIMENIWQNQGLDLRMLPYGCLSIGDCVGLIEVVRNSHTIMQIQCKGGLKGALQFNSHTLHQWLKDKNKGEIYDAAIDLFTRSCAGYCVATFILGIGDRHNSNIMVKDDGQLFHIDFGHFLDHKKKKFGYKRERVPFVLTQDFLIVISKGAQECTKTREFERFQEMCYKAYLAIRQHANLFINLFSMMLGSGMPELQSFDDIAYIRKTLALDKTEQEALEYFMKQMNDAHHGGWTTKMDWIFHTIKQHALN
T1 sequence (P27986 whole entry partner): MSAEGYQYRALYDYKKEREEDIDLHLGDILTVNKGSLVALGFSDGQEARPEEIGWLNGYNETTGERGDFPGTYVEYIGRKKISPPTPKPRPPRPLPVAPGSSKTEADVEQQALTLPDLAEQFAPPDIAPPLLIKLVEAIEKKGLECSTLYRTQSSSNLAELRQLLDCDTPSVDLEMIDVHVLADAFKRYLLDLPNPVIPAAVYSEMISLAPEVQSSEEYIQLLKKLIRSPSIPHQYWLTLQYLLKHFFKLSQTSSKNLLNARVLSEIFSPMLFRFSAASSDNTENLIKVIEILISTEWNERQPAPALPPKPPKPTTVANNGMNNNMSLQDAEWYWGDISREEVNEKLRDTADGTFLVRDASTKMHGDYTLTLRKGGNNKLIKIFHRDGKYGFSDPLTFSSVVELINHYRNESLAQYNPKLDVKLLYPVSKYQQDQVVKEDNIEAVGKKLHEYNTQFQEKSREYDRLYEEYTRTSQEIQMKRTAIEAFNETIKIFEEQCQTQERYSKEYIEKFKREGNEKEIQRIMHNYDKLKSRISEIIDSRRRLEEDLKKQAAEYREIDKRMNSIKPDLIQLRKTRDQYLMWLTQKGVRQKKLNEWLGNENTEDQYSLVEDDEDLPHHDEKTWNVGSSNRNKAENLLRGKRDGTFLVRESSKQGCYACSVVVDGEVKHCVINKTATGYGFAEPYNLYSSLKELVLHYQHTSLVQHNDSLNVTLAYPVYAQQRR
Nature of the data set: PI3Kα ADP-Glo assay. Type of data set: biochemical. The note with it: 20 μM PIP2, 10 μM ATP, 30 minutes. Put shortly:
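Luminescent ADP-Glo detection, after depletion of residual ATP, quantified ADP made by PI3Kα phosphorylating 20 μM PIP2 at 10 μM ATP. The kinase step ran 30 min at room temperature in HEPES pH 7.4 with MgCl2, DTT and orthovanadate, using baculovirus/Sf9-expressed full-length p110α/p85α complex.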
A general note: In ADP-Glo the light output rises with the ADP produced.

Data set [3] has as its target T2, mTor serine/threonine protein kinase (Homo sapiens, UniProt P42345).
T2 construct: FLAG; made in house; host or cells: Baculovirus expression system in Sf21 cells
Nature of the data set: mTor kinase radioisotope assay. Format: biochemical. The note with it: 70 uM ATP, 40 minutes; read-out: m-TOR IC50. As to the method: (F) an In Vitro Assay which-Determines the Ability of a Test Compound to Inhibit mTor Serine/Threonine Protein Kinase.
The ability of compounds to inhibit mTor activity was assayed using standard radioisotope assay for kinase. Briefly, FLAG-tagged, recombinant full-length human mTor (GenBank accession No. NM_004958) was expressed using baculovirus expression system in Sf21 cells and purified using antibody affinity column. Purified enzyme was incubated with c-terminal fragment of p70S6K as it's substrate in the presence of ATP. p33 ATP tracers were included in the assay to monitor the enzyme activity. Final assay condition was with 50 mM HEPES pH 7.5, 1 mM EGTA, 0.01% Tween 20, 2 mg/ml substrate, 3 mM Manganese Chloride and 70 uM of ATP and was carried out at room temperature for 40 minutes. The reaction was then stopped by the addition of 3% phosphoric acid solution. 10 ul of the reaction was spotted onto a P30 filtermat and washed three times for 5 minutes in 75 mM phosphoric acid and once in methanol prior to drying and scintillation counting. Different concentrations of compounds were added to reaction to assess the activity of compounds to inhibit mTor kinase. IC50 was calculated using Prism software with sigmoidal dose-response curve fitting.

For `CN(Cc1cc2nc(-c3cccc4c3CC(=O)N4)nc(N3CCOCC3)c2s1)c1ncc(C(=O)NO)cn1` [Compound 178], the figures for the IC50 in data set [1], in data set [2] and in data set [3] were under 100 nM, over 10000 nM and over 10000 nM, respectively.
Consider `COC(=O)CN(Cc1cc2nc(-c3cccc4[nH]ncc34)nc(N3CCOCC3)c2s1)c1ncc(C(=O)NO)cn1` [Compound 89], for which the IC50 (commonly the concentration that gives 50% inhibition) in data set [1] was under 100 nM; in data set [2] it was under 100 nM; in data set [3], 1000 to 10000 nM.
For `CN(Cc1cc2nc(-c3ccc([N+](=O)[O-])c(O)c3)nc(N3CCOCC3)c2s1)c1ncc(C(=O)NO)cn1` [Compound 293, N-Hydroxy-2-(((2-(3-hydroxy-4-nitrophenyl)-4-morpholinothieno[3,2-d]pyrimidin-6-yl)methyl)(methyl)amino)pyrimidine-5-carboxamide], the values for the concentration for half-maximal inhibition (IC50) in data set [1], in data set [2] and in data set [3] were under 100 nM, under 100 nM and over 10000 nM, respectively.
`CN(Cc1cc2nc(-c3cccc4c3CNC4=O)nc(N3CCOCC3)c2s1)c1ncc(C(=O)NO)cn1` [Compound 181]: the figures for the IC50 in data set [1], in data set [2] and in data set [3] were under 100 nM, 1000 to 10000 nM and over 10000 nM, respectively.
For `COc1ccc(-c2nc(N3CCOCC3)c3sc(CN(CCO)c4ncc(C(=O)NO)cn4)cc3n2)cn1` [Compound 265] the same measures were under 100 nM, under 100 nM and over 10000 nM.
For `CN(Cc1cc2nc(-c3cccc(C(N)=O)c3)nc(N3CCOCC3)c2s1)c1ncc(C(=O)NO)cn1` [Compound 142, 2-(((2-(3-carbamoylphenyl)-4-morpholinothieno[3,2-d]pyrimidin-6-yl)methyl)(methyl)amino)-N-hydroxypyrimidine-5-carboxamide] the same measures were under 100 nM, 100 to 1000 nM and 100 to 1000 nM.
For `N#CCCN(Cc1cc2nc(-c3cccc4[nH]ncc34)nc(N3CCOCC3)c2s1)c1ncc(C(=O)NO)cn1` [Compound 99], in that order: under 100 nM, under 100 nM and 100 to 1000 nM.
As for `Nc1ccc(-c2nc(N3CCOCC3)c3sc(CN(CCO)c4ncc(C(=O)NO)cn4)cc3n2)cc1` [Compound 274], the half-maximal inhibitory concentration (IC50) was under 100 nM in data set [1], under 100 nM in data set [2] and 100 to 1000 nM in data set [3].
Regarding `CC(=O)OCCN(Cc1cc2nc(-c3cccc4[nH]ncc34)nc(N3CCOCC3)c2s1)c1ncc(C(=O)NO)cn1` [Compound 87], the IC50 in data set [1] is under 100 nM; in data set [2], under 100 nM; in data set [3], 1000 to 10000 nM.
In the case of `CC(=O)c1ccc(F)c(-c2nc(N3CCOCC3)c3sc(CN(C)c4ncc(C(=O)NO)cn4)cc3n2)c1` [Compound 301], the IC50 in data set [1] is under 100 nM; in data set [2] it was 1000 to 10000 nM; in data set [3] it was over 10000 nM.
For `CN(Cc1cc2nc(-c3cccc4[nH]c(=O)[nH]c34)nc(N3CCOCC3)c2s1)c1ncc(C(=O)NO)cn1` [Compound 314], in that order: under 100 nM, 100 to 1000 nM and over 10000 nM.
For `CN(Cc1cc2nc(-c3ccc4c(c3)NC(=O)CO4)nc(N3CCOCC3)c2s1)c1ncc(C(=O)NO)cn1` [Compound 183] the same measures were under 100 nM, over 10000 nM and over 10000 nM.
For `CN(Cc1cc2nc(-c3c[nH]c4ccccc34)nc(N3CCOCC3)c2s1)c1ncc(C(=O)NO)cn1` [Compound 184], in that order: under 100 nM, 1000 to 10000 nM and 100 to 1000 nM.
On to `CS(=O)(=O)N1CCN(Cc2cc3nc(-c4cccc5[nH]ncc45)nc(N4CCN(CCCCCC(=O)NO)CC4)c3s2)CC1` [Compound 31, 6-(4-(2-(1H-indazol-4-yl)-6-((4-(methylsulfonyl)piperazin-1-yl)methyl)thieno[3,2-d]pyrimidin-4-yl)piperazin-1-yl)-N-hydroxyhexanamide], for which the melting point (usually the temperature, or range, at which the solid turns liquid) was in the range of 140 to 145 °C. The IC50 in data set [1] fell in the range of 100 to 1000 nM. The IC50 in data set [2] was over 10000 nM.
For `Cn1cc(-c2nc(N3CCOCC3)c3sc(CN(CCO)c4ncc(C(=O)NO)cn4)cc3n2)cn1` [Compound 313], the IC50 in data set [1] is under 100 nM; in data set [2] it was 100 to 1000 nM; in data set [3], over 10000 nM.
Take `Nc1ncc(-c2nc(N3CCOCC3)c3sc(NCCCC(=O)NO)cc3n2)cn1` [Compound 225, 4-(2-(2-aminopyrimidin-5-yl)-4-morpholinothieno[3,2-d]pyrimidin-6-ylamino)-N-hydroxybutanamide]: the melting point is 220 to 230 °C. The molecule also showed an IC50 in data set [1] of 1000 to 10000 nM. This molecule yielded a half-maximal inhibitory concentration (IC50) in data set [2] of under 100 nM.
For `CS(=O)(=O)N1CCN(Cc2cc3nc(-c4cccc5nn(CCCCC(=O)NO)cc45)nc(N4CCOCC4)c3s2)CC1` [Compound 7, N-hydroxy-5-(4-(6-((4-(methylsulfonyl)piperazin-1-yl)methyl)-4-morpholinothieno[3,2-d]pyrimidin-2-yl)-2H-indazol-2-yl)pentanamide] the same measures were 146 to 169 °C, 100 to 1000 nM and 100 to 1000 nM.
For `CN(Cc1cc2nc(-c3cn[nH]c3)nc(N3CCOCC3)c2s1)c1ncc(C(=O)NO)cn1` [Compound 196, N-hydroxy-2-(methyl((4-morpholino-2-(1H-pyrazol-4-yl)thieno[3,2-d]pyrimidin-6-yl)methyl)amino)pyrimidine-5-carboxamide], in that order: 214 to 217 °C, under 100 nM and 100 to 1000 nM.
For `CN(Cc1cc2nc(-c3cccc4[nH]ncc34)nc(N3CCOCC3)c2s1)c1ccc(/C=C/C(=O)NO)cc1` [Compound 81, (E)-3-(4-(((2-(1H-indazol-4-yl)-4-morpholinothieno[3,2-d]pyrimidin-6-yl)methyl)(methyl)amino)phenyl)-N-hydroxyacrylamide], in that order: 188 to 190 °C, 1000 to 10000 nM and under 100 nM.
In turn, `O=C(/C=C/c1ccc(NCc2cc3nc(-c4cccc5[nH]ncc45)nc(N4CCOCC4)c3s2)cc1)NO` [Compound 80, (E)-3-(4-((2-(1H-indazol-4-yl)-4-morpholinothieno[3,2-d]pyrimidin-6-yl)methylamino)phenyl)-N-hydroxyacrylamide] displayed a melting point of over 300 °C. This molecule showed a half-inhibitory concentration (IC50) in data set [1] of 100 to 1000 nM. In data set [2], this molecule registered an IC50 of under 100 nM.
For `CNC(=O)c1cccc(-c2nc(N3CCOCC3)c3sc(CN(C)c4ncc(C(=O)NO)cn4)cc3n2)c1` [Compound 144, N-hydroxy-2-(methyl((2-(3-(methylcarbamoyl)phenyl)-4-morpholinothieno[3,2-d]pyrimidin-6-yl)methyl)amino)pyrimidine-5-carboxamide] the same measures were 215 to 217 °C, under 100 nM and 1000 to 10000 nM.
Take `Cc1ncc(-c2nc(N3CCOCC3)c3sc(CN(C)c4ncc(C(=O)NO)cn4)cc3n2)s1` [Compound 311]: the concentration for half-maximal inhibition (IC50) is under 100 nM in data set [1], 100 to 1000 nM in data set [2] and over 10000 nM in data set [3].
`CN(C)CCOc1ccc(-c2nc(N3CCOCC3)c3sc(CN(C)c4ncc(C(=O)NO)cn4)cc3n2)cn1` [Compound 257, 2-(((2-(6-(2-(Dimethylamino)ethoxy)pyridin-3-yl)-4-morpholinothieno[3,2-d]pyrimidin-6-yl)methyl)(methyl)amino)-N-hydroxypyrimidine-5-carboxamide]: the melting point fell in the range of 140 to 143 °C. The molecule further had an IC50 in data set [1] of under 100 nM. The molecule also displayed an IC50 in data set [2] of over 10000 nM.
For `CN(Cc1cc2nc(-c3ccc(OCCN)nc3)nc(N3CCOCC3)c2s1)c1ncc(C(=O)NO)cn1` [Compound 259, 2-(((2-(6-(2-Aminoethoxy)pyridin-3-yl)-4-morpholinothieno[3,2-d]pyrimidin-6-yl)methyl)(methyl)amino)-N-hydroxypyrimidine-5-carboxamide], in that order: 110 to 115 °C, under 100 nM and over 10000 nM.
For `CN(Cc1cc2nc(-c3cccc4c3CCN4)nc(N3CCOCC3)c2s1)c1ncc(C(=O)NO)cn1` [Compound 177, N-hydroxy-2-(((2-(indolin-4-yl)-4-morpholinothieno[3,2-d]pyrimidin-6-yl)methyl)(methyl)amino)pyrimidine-5-carboxamide], in that order: 146 to 156 °C, under 100 nM and over 10000 nM.

The values are drawn from patent US20130102595A1 (Curis, Inc., priority 2011, published 2013).
